Data reported in ChEMBL document CHEMBL3286216, “Synthesis and biological evaluation of CHX-DAPYs as HIV-1 non-nucleoside reverse transcriptase inhibitors” (Bioorg Med Chem, 2014).

Experiments:
[1] = tested on: Human immunodeficiency virus 2; experiment: Antiviral activity against HIV2 ROD infected in human MT4 cells assessed as inhibition of virus-induced cytopathicity measured 5 days post viral infection by MTT assay; assay type: functional, organism-based; conditions: Human immunodeficiency virus 2, ISOLATE ROD, MT4, 120 h
[2] = Selectivity index, ratio CC50 for human MT4 cells to EC50 for HIV 1 3B
[3] = Cytotoxicity against human MT4 cells by MTT assay; assay type: cell-based
[4] = tested on: Human immunodeficiency virus 1; experiment: Antiviral activity against HIV1 3B infected in human MT4 cells assessed as inhibition of virus-induced cytopathicity measured 5 days post viral infection by MTT assay; assay type: functional, organism-based; conditions: Human immunodeficiency virus 1, 3B, MT4, 120 h
[5] = tested on: Human immunodeficiency virus 1; experiment: Antiviral activity against HIV1 RES056 harboring RT K103N,Y181C double mutant infected in human MT4 cells assessed as inhibition of virus-induced cytopathicity measured 5 days post viral infection by MTT assay; assay type: functional, organism-based; conditions: Human immunodeficiency virus 1, RES056, MT4, 120 h

In the case of `Nc1ccn([C@@H]2CS[C@H](CO)O2)c(=O)n1` [LAMIVUDINE], the EC50 [1] is reported as 7.2 µM, the selectivity ratio ([2]; mt4) is reported as > 36 and the CC50 [3] is reported as > 87.2 µM. For the same compound, the EC50 [4] was 2.44 µM.
For `Cc1ccc(C(Cl)c2ccnc(Nc3ccc(C#N)cc3)n2)cc1` (stereo not given), the EC50 [1] was > 49.7 µM, the selectivity ratio ([2]; MT4 cells) was 713 and the CC50 [3] was 49.7 µM. For the same compound, the EC50 [5] was > 49.7 µM and the EC50 [4] was 0.069 µM.
With `N#Cc1ccc(Nc2nccc(C(Cl)c3ccc(Br)cc3)n2)cc1` (stereo not given) the EC50 [1] was > 32.5 µM, the selectivity ratio ([2]; MT4 cells) was 875 and the CC50 [3] was 32.5 µM. For the same compound, the EC50 [5] was > 32.5 µM and the EC50 [4] was 0.038 µM.
In the case of `N#Cc1ccc(Nc2nccc(C(Cl)c3cccc(F)c3)n2)cc1` (stereo not given), the EC50 [1] is reported as > 36.8 µM, the selectivity ratio ([2]; MT4 cells) is reported as 27 and the CC50 [3] is reported as 36.8 µM. The EC50 [5] was > 36.8 µM and the EC50 [4] was 1.36 µM.
In the case of `N#Cc1ccc(Nc2nccc(C(Br)c3ccccc3)n2)cc1` (stereo not given), the EC50 [1] is reported as > 69 µM, the selectivity ratio ([2]; MT4 cells) is reported as 348 and the CC50 [3] is reported as 69 µM. The EC50 [5] was > 69 µM and the EC50 [4] was 0.2 µM.
For `Cc1ccc(C(Br)c2ccnc(Nc3ccc(C#N)cc3)n2)cc1` (stereo not given), the EC50 [1] was > 31.5 µM, the selectivity ratio ([2]; MT4 cells) was 672 and the CC50 [3] was 31.5 µM. The EC50 [5] was > 31.5 µM and the EC50 [4] was 0.047 µM.
For `Cc1cnc(Nc2ccc(C#N)cc2)nc1C(Cl)c1ccc(Br)cc1` (stereo not given), the EC50 [1] was > 10.3 µM, the selectivity ratio ([2]; MT4 cells) was 95 and the CC50 [3] was 10.3 µM. For the same compound, the EC50 [5] was > 10.3 µM and the EC50 [4] was 0.109 µM.
In the case of `O=C1Nc2ccc(Cl)cc2[C@@](C#CC2CC2)(C(F)(F)F)O1` [EFAVIRENZ], the selectivity ratio ([2]; mt4) is reported as > 1140, the CC50 [3] is reported as > 6.3 µM and the EC50 [5] is reported as 0.27 µM.
In the case of `CC(C)(C)c1ccc(C(Cl)c2ccnc(Nc3ccc(C#N)cc3)n2)cc1` (stereo not given), the EC50 [1] is reported as > 32.9 µM, the selectivity ratio ([2]; MT4 cells) is reported as 193 and the CC50 [3] is reported as 32.9 µM. The EC50 [5] was > 32.9 µM and the EC50 [4] was 0.17 µM.
In the case of `N#Cc1ccc(Nc2nccc(C(Cl)c3cccc(Cl)c3)n2)cc1` (stereo not given), the EC50 [1] is reported as > 24.3 µM, the selectivity ratio ([2]; MT4 cells) is reported as 5160 and the CC50 [3] is reported as 24.3 µM. The EC50 [5] was > 24.3 µM and the EC50 [4] was 0.005 µM.
For `Cc1cc(C(Cl)c2ccc(F)cc2)nc(Nc2ccc(C#N)cc2)n1` (stereo not given), the EC50 [1] was > 31.1 µM, the selectivity ratio ([2]; MT4 cells) was 5 and the CC50 [3] was 31.1 µM. The EC50 [5] was > 31.1 µM and the EC50 [4] was 5.84 µM.
In the case of `N#Cc1ccc(Nc2nccc(C(Cl)c3ccc(Cl)cc3)n2)cc1` (stereo not given), the EC50 [1] is reported as > 36.1 µM, the selectivity ratio ([2]; MT4 cells) is reported as 545 and the CC50 [3] is reported as 36.1 µM. The EC50 [5] was > 36.1 µM and the EC50 [4] was 0.068 µM.
For `N#Cc1ccc(Nc2nccc(C(Cl)c3ccc(F)cc3)n2)cc1` (stereo not given), the EC50 [1] was > 35.4 µM, the selectivity ratio ([2]; MT4 cells) was 19 and the CC50 [3] was 35.4 µM. For the same compound, the EC50 [5] was > 35.4 µM and the EC50 [4] was 1.83 µM.
For `CC(C)Nc1cccnc1N1CCN(C(=O)c2cc3cc(NS(C)(=O)=O)ccc3[nH]2)CC1` [DELAVIRDINE], the selectivity ratio ([2]; MT4 cells) was > 511, the CC50 [3] was > 43.8 µM and the EC50 [5] was > 43.8 µM. The EC50 [4] was 0.085 µM.
For `N#Cc1ccc(Nc2nccc(C(Cl)c3cccc(Br)c3)n2)cc1` (stereo not given), the EC50 [1] was > 30.4 µM, the selectivity ratio ([2]; MT4 cells) was 3110 and the CC50 [3] was 30.4 µM. The EC50 [5] was 8.2 µM and the EC50 [4] was 0.009 µM.
With `Cc1cc(C(Cl)c2ccc(Br)cc2)nc(Nc2ccc(C#N)cc2)n1` (stereo not given) the EC50 [1] was > 31.9 µM, the selectivity ratio ([2]; MT4 cells) was 75 and the CC50 [3] was 31.9 µM. The EC50 [5] was > 31.9 µM and the EC50 [4] was 0.435 µM.
In the case of `Cc1cn([C@H]2C[C@H](N=[N+]=[N-])[C@@H](CO)O2)c(=O)[nH]c1=O` [ZIDOVUDINE], the EC50 [1] is reported as 0.005 µM, the selectivity ratio ([2]; mt4) is reported as > 17000 and the CC50 [3] is reported as > 93.5 µM. For the same compound, the EC50 [5] was 0.007 µM.
In the case of `Cc1cnc(Nc2ccc(C#N)cc2)nc1C(Cl)c1ccc(C(C)(C)C)cc1` (stereo not given), the EC50 [1] is reported as > 28.7 µM, the selectivity ratio ([2]; MT4 cells) is reported as 16 and the CC50 [3] is reported as 28.7 µM. The EC50 [5] was > 28.7 µM and the EC50 [4] was 1.79 µM.
With `N#Cc1ccc(Nc2nccc(C(Cl)c3cccc4ccccc34)n2)cc1` (stereo not given) the EC50 [1] was > 11.3 µM, the selectivity ratio ([2]; MT4 cells) was 56 and the CC50 [3] was 11.3 µM. The EC50 [5] was > 11.3 µM and the EC50 [4] was 0.202 µM.
With `N#Cc1ccc(Nc2nccc(C(Cl)c3ccccc3)n2)cc1` (stereo not given) the EC50 [1] was > 37.8 µM, the selectivity ratio ([2]; MT4 cells) was 2340 and the CC50 [3] was 37.8 µM. For the same compound, the EC50 [5] was > 37.8 µM and the EC50 [4] was 0.016 µM.
In the case of `Cc1ccnc2c1NC(=O)c1cccnc1N2C1CC1` [NEVIRAPINE], the selectivity ratio ([2]; MT4 cells) is reported as > 163 and the EC50 [5] is reported as > 15 µM.
In the case of `Cc1cnc(Nc2ccc(C#N)cc2)nc1C(Cl)c1ccc(F)cc1` (stereo not given), the EC50 [1] is reported as > 30.8 µM, the selectivity ratio ([2]; MT4 cells) is reported as 4 and the CC50 [3] is reported as 30.8 µM. For the same compound, the EC50 [5] was > 30.8 µM and the EC50 [4] was 7.88 µM.
With `Cc1cc(C#N)cc(C)c1Oc1nc(Nc2ccc(C#N)cc2)nc(N)c1Br` [ETRAVIRINE] the EC50 [1] was > 14.2 µM, the selectivity ratio ([2]; mt4) was 7380 and the CC50 [3] was 14.2 µM. For the same compound, the EC50 [5] was 0.0147 µM.
With `Cc1cc(C(Cl)c2ccc(C(C)(C)C)cc2)nc(Nc2ccc(C#N)cc2)n1` (stereo not given) the EC50 [1] was > 30.3 µM, the selectivity ratio ([2]; MT4 cells) was 173 and the CC50 [3] was 30.3 µM. For the same compound, the EC50 [5] was > 30.3 µM and the EC50 [4] was 0.174 µM.
For `COc1ccc(C(Cl)c2ccnc(Nc3ccc(C#N)cc3)n2)cc1` (stereo not given), the EC50 [1] was > 33.6 µM, the CC50 [3] was ≥ 33.6 µM and the EC50 [5] was > 33.6 µM. For the same compound, the EC50 [4] was 0.219 µM.
